The term IC50 denotes the midpoint of a concentration-inhibition curve.

The structures appear in SMILES notation. Starred links: 1 amine or outer side, 2 acyl side, 3 side chain; linkers in the order of their positions; H or OH if unused. Positions of bridges follow the written chain, without caps; N, C: chain ends. Non-standard residues stand in square brackets, D forms with d. Residues, ends and D or L forms follow the SMILES beside them. *: point of attachment. hPhe(3-Cl-4-CF3) = N[C@@H](CCc1ccc(C(F)(F)F)c(Cl)c1)C(=O)O; NEtPhe(4-CF3) = CCN[C@@H](Cc1ccc(C(F)(F)F)cc1)C(=O)O; hPhe(4-CF3) = N[C@@H](CCc1ccc(C(F)(F)F)cc1)C(=O)O; NMePhe(4-Cl) = CN[C@@H](Cc1ccc(Cl)cc1)C(=O)O; NMePhe(3-F) = CN[C@@H](Cc1cccc(F)c1)C(=O)O; hPhe(4-Cl) = N[C@@H](CCc1ccc(Cl)cc1)C(=O)O; NMedβ3hAla = C[C@H](CC(=O)[*:2])N(C)[*:1]; NMeGly(cPent) = CN[C@H](C(=O)O)C1CCCC1; Pro(4,4-F2) = O=C(O)[C@@H]1CC(F)(F)CN1; NMeCha = CN[C@@H](CC1CCCCC1)C(=O)O; NMeGly(cPr) = CN[C@H](C(=O)O)C1CC1; NMeI = CC[C@H](C)[C@H](NC)C(=O)O; N(CH2CH2)2CF2 = FC1(F)CCN(*)CC1; NMeD = CN[C@@H](CC(=O)O)C(=O)O; NMeL = CN[C@@H](CC(C)C)C(=O)O; NMeV = CN[C@H](C(=O)O)C(C)C; d(β3hA) = C[C@@H](N)CC(=O)O; NMeS = CN[C@@H](CO)C(=O)O; Pip = O=C(O)[C@@H]1CCCCN1; dPip = O=C(O)[C@H]1CCCCN1; NMeA = CN[C@@H](C)C(=O)O; Piperidide = C1CCN(*)CC1; dNMeA = CN[C@H](C)C(=O)O; Ac5c = NC1(C(=O)O)CCCC1; Aze = O=C(O)[C@@H]1CCN1; Ac4c = NC1(C(=O)O)CCC1; Sar = CNCC(=O)O

T1 sequence (P01116 1-188 isoform P01116-2 G12D): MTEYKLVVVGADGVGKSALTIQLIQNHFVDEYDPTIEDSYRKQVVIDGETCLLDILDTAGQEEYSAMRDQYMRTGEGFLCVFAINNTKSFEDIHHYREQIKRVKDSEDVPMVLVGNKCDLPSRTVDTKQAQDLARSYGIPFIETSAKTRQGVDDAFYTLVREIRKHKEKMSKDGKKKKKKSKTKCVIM

The assay concerns the target T1, Kras and SOS1 (biotin-tagged human Kras loaded with GDP, His-tagged human SOS1) (Homo sapiens, UniProt P01116, G12D).
T1 construct: made in house; host or cells: E. coli (stated for Kras only)
Kind of assay: Protein-protein interaction inhibition between Kras and SOS1 (KrasGl2D-SOS PPI) using AlphaScreen. Format: binding. Particulars: AlphaScreen; biotin-tagged human Kras loaded with GDP, His-tagged human SOS1; read-out: KRAS G12D-SOS PPI IC50. The essentials: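 Donor beads (nickel) hold His-SOS1; acceptor beads (streptavidin) hold biotin-Kras bound to GDP. Signal measured at 520-620 nm following 680 nm excitation.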
A general note: In Alpha technology, singlet oxygen from a donor bead excites a nearby acceptor bead.
Consider `CC[C@H](C)[C@@H]1NC(=O)[C@H](C)N(C)C(=O)C[C@@H](C(=O)N2CCCCC2)N(C)C(=O)[C@H](C(C)C)N(C)C(=O)[C@H](CC(C)C)NC(=O)[C@H](CC(=O)N2CCC(F)(F)CC2)N(C)C(=O)[C@H](CCc2ccc(C(F)(F)F)c(Cl)c2)NC(=O)CN(C)C(=O)[C@H](CC2CCCCC2)N(C)C(=O)CN(C)C(=O)CN(C)C1=O` [Compound 826] ([NMeA]I[Sar][Sar][NMeCha][Sar][hPhe(3-Cl-4-CF3)][NMeD](N(CH2CH2)2CF2)L[NMeV][NMeD]-Piperidide; lactam N-11), for which the IC50 was determined as 0.11 µM. Next, `CC[C@H](C)[C@@H]1NC(=O)[C@H](C)N(C)C(=O)C[C@@H](C)NC(=O)[C@H](C2CCCC2)N(C)C(=O)C2(CCCC2)NC(=O)[C@@H]2CCCN2C(=O)[C@H](CCc2ccc(C(F)(F)F)c(Cl)c2)NC(=O)[C@@H](C)N(C)C(=O)[C@H](Cc2cccc(F)c2)N(C)C(=O)CN(C)C(=O)CN(C)C1=O` [Compound 830] (cyclo([Ac5c][NMeGly(cPent)][d(β3hA)][NMeA]I[Sar][Sar][NMePhe(3-F)][dNMeA][hPhe(3-Cl-4-CF3)]P)): 0.28 µM.

With `CC[C@H](C)[C@@H]1NC(=O)[C@H](C)N(C)C(=O)C[C@@H](C)NC(=O)[C@H](C(C)C)N(C)C(=O)C2(CCCC2)NC(=O)[C@@H]2CCCN2C(=O)[C@H](CCc2ccc(C(F)(F)F)c(Cl)c2)NC(=O)[C@@H](C)N(C)C(=O)[C@H](CC2CCCCC2)N(C)C(=O)[C@@H]2CCN2C(=O)[C@H](C)N(C)C1=O` [Compound 831] (cyclo([Ac5c][NMeV][d(β3hA)][NMeA]I[NMeA][Aze][NMeCha][dNMeA][hPhe(3-Cl-4-CF3)]P)), the IC50 came out at 0.18 µM. With `CC[C@H](C)[C@@H]1NC(=O)[C@H](CC(C)C)N(C)C(=O)C[C@@H](C)N(C)C(=O)[C@H]([C@@H](C)CC)N(C)C(=O)C2(CCC2)NC(=O)[C@@H]2CC(F)(F)CN2C(=O)[C@H](CCc2ccc(C(F)(F)F)c(Cl)c2)NC(=O)CN(C)C(=O)[C@H](Cc2ccc(C(F)(F)F)cc2)N(CC)C(=O)[C@@H]2CCN2C(=O)[C@H](C)N(C)C1=O` [Compound 833] (cyclo([Ac4c][NMeI][NMedβ3hAla][NMeL]I[NMeA][Aze][NEtPhe(4-CF3)][Sar][hPhe(3-Cl-4-CF3)][Pro(4,4-F2)])) the figure was 0.0091 µM; with `CC[C@H](C)[C@@H]1NC(=O)[C@H](C)N(C)C(=O)C[C@@H](C)NC(=O)[C@H](C(C)C)N(C)C(=O)C2(CCCC2)NC(=O)[C@@H]2CCCN2C(=O)[C@H](CCc2ccc(C(F)(F)F)c(Cl)c2)NC(=O)[C@H]2CCCCN2C(=O)[C@H](CC2CCCCC2)N(C)C(=O)[C@@H]2CCCN2C(=O)CN(C)C1=O` [Compound 834] (cyclo([Ac5c][NMeV][d(β3hA)][NMeA]I[Sar]P[NMeCha][dPip][hPhe(3-Cl-4-CF3)]P)), 0.057 µM; with `CC[C@H](C)[C@@H]1NC(=O)[C@@H]2CCCCN2C(=O)C[C@@H](C(=O)N2CCCCC2)N(C)C(=O)[C@H](C(C)C)N(C)C(=O)C2(CCCC2)NC(=O)[C@@H]2CCCN2C(=O)[C@H](CCc2ccc(Cl)cc2)NC(=O)CN(C)C(=O)[C@H](CC2CCCCC2)N(C)C(=O)CN(C)C(=O)CN(C)C1=O` [Compound 841] ([Pip]I[Sar][Sar][NMeCha][Sar][hPhe(4-Cl)]P[Ac5c][NMeV][NMeD]-Piperidide; lactam N-11), 0.024 µM. Next, `CC[C@H](C)[C@@H]1NC(=O)[C@H](C2CC2)N(C)C(=O)C[C@@H](C)NC(=O)[C@H](C(C)C)N(C)C(=O)C2(CCCC2)NC(=O)[C@@H]2CCCN2C(=O)[C@H](CCc2ccc(C(F)(F)F)c(Cl)c2)NC(=O)CN(C)C(=O)[C@H](CC2CCCCC2)N(C)C(=O)CN(C)C(=O)CN(C)C1=O` [Compound 844] (cyclo([Ac5c][NMeV][d(β3hA)][NMeGly(cPr)]I[Sar][Sar][NMeCha][Sar][hPhe(3-Cl-4-CF3)]P)): 0.028 µM; `CC[C@H](C)[C@@H]1NC(=O)[C@@H]2CCCCN2C(=O)C[C@@H](C)NC(=O)[C@H](CC(C)C)N(C)C(=O)C2(CCCC2)NC(=O)[C@H](CC(C)C)N(C)C(=O)[C@H](CCc2ccc(C(F)(F)F)cc2)NC(=O)CN(C)C(=O)[C@H](Cc2ccc(Cl)cc2)N(C)C(=O)CN(C)C(=O)CN(C)C1=O` [Compound 847] (cyclo([Ac5c][NMeL][d(β3hA)][Pip]I[Sar][Sar][NMePhe(4-Cl)][Sar][hPhe(4-CF3)][NMeL])): 0.054 µM; `CC[C@H](C)[C@@H]1NC(=O)[C@H](CC(C)C)N(C)C(=O)C[C@@H](C(=O)N2CCCCC2)N(C)C(=O)[C@H](COC)N(C)C(=O)C2(CCCC2)NC(=O)[C@@H]2CCCN2C(=O)[C@H](CCc2ccc(C(F)(F)F)c(Cl)c2)NC(=O)CN(C)C(=O)[C@H](CC2CCCCC2)N(C)C(=O)CN(C)C(=O)CN(C)C1=O` [Compound 850] ([NMeL]I[Sar][Sar][NMeCha][Sar][hPhe(3-Cl-4-CF3)]P[Ac5c][NMeS](Me)[NMeD]-Piperidide; lactam N-11): 0.024 µM.

The values are drawn from US12371454B2, “Cyclic peptide compound having Kras inhibitory action” (priority 2019, dated 2025).
